This assay has as its target T1, RORc ligand binding domain (Homo sapiens, UniProt P51449).
T1 construct: host or cells: E. coli
T1 sequence (P51449 269-508 limits assumed): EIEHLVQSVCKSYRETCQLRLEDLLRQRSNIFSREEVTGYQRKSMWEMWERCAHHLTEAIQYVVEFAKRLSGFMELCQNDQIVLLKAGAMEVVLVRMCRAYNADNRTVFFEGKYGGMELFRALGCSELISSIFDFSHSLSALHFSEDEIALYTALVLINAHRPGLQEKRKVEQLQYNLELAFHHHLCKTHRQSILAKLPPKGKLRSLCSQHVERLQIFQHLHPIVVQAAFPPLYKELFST
In words: In Vitro RORc Ligand Binding Assay. As to conditions: displacement of 25-[3H]hydroxycholesterol (6 nM), 0.6 ug/mL RORc receptor, 3 h at 25° C. The protocol:
In Vitro RORc Ligand Binding Assay This assay was used to determine a compound's potency in inhibiting activity of RORc by determining, Kiapp, IC50, or percent inhibition values. […] On day of the assay, 100 uL of 0.05% CHAPS (in deionized H2O) was added to all wells of the GFB Unifilter plate and allowed soak for 1 h. A wash buffer of 50 mM HEPES (pH 7.4), 150 mM NaCl, and 5 mM MgCl2 was prepared to wash the filter plate. To prepare an assay buffer, BSA was added to the wash buffer to reach 0.01% and DTT was added to reach 1 mM. […] The 20× compound stocks were diluted in DMSO with Assay Buffer 4-fold to reach 5× the final test concentration in 25% DMSO (10 uL compound+30 uL Assay Buffer). Solutions were mixed by aspiration several times with a pipette set on 50 uL volume. For the assay, 10 uL of 5× compound stock solutions in 25% DMSO were added to the assay plate in duplicate. For two point screening, 10 mM stock compound solutions were diluted in DMSO to obtain 200 uM (20× the high test concentration) and then diluted 10-fold further to reach 20 uM (20× the low test concentration). The 20× stocks were diluted 4-fold with Assay Buffer (10 uL compound+30 uL Assay Buffer) to reach 5× the test concentrations (50 uM and 5 uM) and 10 uL were added to two assay plates for the duplicate wells. […] Add 20 uL to all wells to reach 6 nM final concentration in the assay. […] Stock receptor solution was diluted in assay buffer to obtain 1.5 ug/mL in Assay Buffer. 20 uL was added to all wells. For No Receptor samples, 20 uL Assay Buffer was substituted for receptor solution. […] Following addition to the wells, the plates were incubated 3 h at 25° C. Using a Packard Filtermate Harvester, the filter plate were washed 4 times following transfer of the incubated samples. Plates were dry-filtered completely (2 h at 50° C. or overnight at room temperature). 50 uL Microscint 0 was added to all wells and read on Topcount protocol Inverted. […] For NSB wells, 1 uM 25-hydroxycholesterol was also present.
For `CC(=O)N1CCN(c2ccc(S(=O)(=O)N(Cc3ccccc3C(F)(F)F)CC(F)(F)F)cc2)CC1` [Compound 80, 4-(4-Acetyl-piperazin-1-yl)-N-(2,2,2-trifluoro-ethyl)-N-(2-trifluoromethyl-benzyl)-benzenesulfonamide], the IC50 was 87 nM. Consider `CC(=O)N1CCN(c2ccc(S(=O)(=O)N(Cc3ccccc3C(F)(F)F)C3CCC3)cc2)CC1` [Compound 76, 4-(4-Acetyl-piperazin-1-yl)-N-cyclobutyl-N-(2-trifluoromethyl-benzyl)-benzenesulfonamide], for which the IC50 is 31 nM. `CN(C)S(=O)(=O)N1CCN(c2ccc(S(=O)(=O)N(Cc3ccccc3C(F)(F)F)C3CCC3)cc2)CC1` [Compound 77, 4-{4-[Cyclobutyl-(2-trifluoromethyl-benzyl)-sulfamoyl]-phenyl}-piperazine-1-sulfonic acid dimethylamide] had a half-maximal inhibitory concentration (IC50) of 25 nM. Then `CC(C)CN(c1ccccc1Cl)S(=O)(=O)c1ccc(N2CCC(O)CC2)cc1` [Compound 16, N-(2-Chloro-phenyl)-4-(4-hydroxy-piperidin-1-yl)-N-isobutyl-benzenesulfonamide], with 1300 nM; and `CC(C)CN(c1cccc(Cl)c1)S(=O)(=O)c1ccc(N[C@@H]2CCCN(S(C)(=O)=O)C2)cc1` [Compound 44, N-(3-Chloro-phenyl)-N-isobutyl-4-((R)-1-methanesulfonyl-piperidin-3-ylamino)-benzenesulfonamide], with 117 nM. `CC(=O)N1CCC(Nc2ccc(S(=O)(=O)N(CC(C)C)c3cccc(Cl)c3)cc2)CC1` [Compound 31, 4-(1-Acetyl-piperidin-4-ylamino)-N-(3-chloro-phenyl)-N-isobutyl-benzenesulfonamide] gave an IC50 of 258 nM. As for `CC(C)CN(c1cccc(Cl)c1)S(=O)(=O)c1ccc(O[C@@H]2CCCN(S(C)(=O)=O)C2)cc1` [Compound 42, N-(3-Chloro-phenyl)-N-isobutyl-4-((R)-1-methanesulfonyl-piperidin-3-yloxy)-benzenesulfonamide], the IC50 is 164 nM. Then `CC(C)CN(Cc1ccc(F)cc1)S(=O)(=O)c1ccc(NC2CCN(S(C)(=O)=O)CC2)cc1` [Compound 2, N-(4-Fluoro-benzyl)-N-isobutyl-4-(1-methanesulfonyl-piperidin-4-ylamino)-benzenesulfonamide], with 8 nM. As to `CC(C)CN(c1cccc(Cl)c1)S(=O)(=O)c1ccc(NC2CCN(C(N)=O)CC2)cc1` [Compound 36, 4-{4-[(3-Chloro-phenyl)-isobutyl-sulfamoyl]-phenylamino}-piperidine-1-carboxylic acid amide], the 50% inhibitory concentration (IC50) was 66 nM. `CC(=O)N1CCN(c2ccc(S(=O)(=O)N(CC(C)C)c3cccc(Cl)c3)cc2)CC1` [Compound 17, 4-(4-Acetyl-piperazin-1-yl)-N-(3-chloro-phenyl)-N-isobutyl-benzenesulfonamide] displayed a concentration for half-maximal inhibition (IC50) of 138 nM. Compound `CC(C)CN(Cc1ccccc1C(F)(F)F)S(=O)(=O)c1ccc(NC2CCN(S(C)(=O)=O)CC2)cc1` [Compound 84, N-Isobutyl-4-(1-methanesulfonyl-piperidin-4-ylamino)-N-(2-trifluoromethyl-benzyl)-benzenesulfonamide] gave an IC50 of 6 nM. In turn, `CC(C)CN(c1cccc(Cl)c1)S(=O)(=O)c1ccc(NC2CCN(S(C)(=O)=O)CC2)cc1` [Compound 32, N-(3-Chloro-phenyl)-N-isobutyl-4-(1-methanesulfonyl-piperidin-4-ylamino)-benzenesulfonamide] gave an IC50 of 7 nM. Then `CC(C)CN([C@@H](CO)c1ccccc1)S(=O)(=O)c1ccc(N2CCN(S(C)(=O)=O)CC2)cc1` [Compound 92, N-((R)-2-Hydroxy-1-phenyl-ethyl)-N-isobutyl-4-(4-methanesulfonyl-piperazin-1-yl)-benzenesulfonamide], with 3100 nM; and `CC(=O)N1CCN(c2ccc(S(=O)(=O)N(c3cccc(Cl)c3)C(C)C)cc2)CC1` [Compound 28, 4-(4-Acetyl-piperazin-1-yl)-N-(3-chloro-phenyl)-N-isopropyl-benzenesulfonamide], with 1600 nM. Then `CC(C)CN(c1cccc(Cl)c1)S(=O)(=O)c1ccc(N2CCC(O)CC2)cc1` [Compound 15, N-(3-Chloro-phenyl)-4-(4-hydroxy-piperidin-1-yl)-N-isobutyl-benzenesulfonamide], with 771 nM.
